According to patent publication US5527697A, “7-amino-3-methoxymethyl-3-cephem-4-carboxylic ester hydrolase, process for its preparation, and its use” (Hoechst Aktiengesellschaft, priority 1992, dated 1996):
Where a name gives a salt, the structure may show the parent alone.

Legend:
[1] = test system: esterase according to the invention (MACA-ester hydrolase); assay: substrate specificity of the esterase according to the invention; assay type: biochemical
Source text: Following partial purification, the enzyme can be bound without difficulty, for example to the enzyme carrier VA-Epoxy-Biosynth®. The activity is normally determined by conversion of MACA-ester to MACA. HPLC or TLC is then employed for the quantitative evaluation of the amount of MACA that is formed.
The following table contains further information concerning the substrate specificity of the esterase according to the invention: […]

[2] = test system: immobilized enzyme (MACA-ester hydrolase); assay: cleavage of MACA ester (R) with immobilized esterase; assay type: biochemical, Nocardia sp. ATCC 53492; settings: within 6-8 hours; pH 6.8, 30° C.; 5 g substrate, 100 g moist immobilized enzyme
Description: 2.5 g of R-ester hydrochloride are dissolved in 800 ml of 50 mM potassium phosphate solution, pH=6.8. 100 g of moist, immobilized enzyme are then added with stirring. The pH is kept at 6.8 and the temperature at 30° C. Further 1.25 g amounts of substrate are added after 2.5 h and after 41/4 h. In all, the mixture contains 5 g of MACA ester (R). The cleavage proceeds within the space of 6-8 hours to 95% conversion according to HPLC. The cleavage solution is separated from the enzyme and lyophilized. About 10 g of a white solid are obtained.

[3] = substrate concentration 2.5 mM, MACA ester pro J = 100
[4] = substrate concentration 100 mM, relative to MACA ester pro J = 100
[5] = substrate concentration 1.59 mM, HEPES, pH 6.95
[6] = substrate concentration 2.5 mM, phosphate buffer, pH 6.8

Activity U/mg ([1]; substrate concentration 100 mM) [U/mg]	Activity U/ml ([1]; substrate concentration 100 mM) [U/ml]	Activity % [1, 4] [%]	Structure (SMILES)	other results
92.75	37.1	105.4	CC(=O)OCC(COC(C)=O)OC(C)=O [Triacetin]	–
93.75	37.5	106.5	CCCC(=O)OCC(COC(=O)CCC)OC(=O)CCC [Tributyrin]	–

Continued, molecule first:

Structure (SMILES)	Activity U/mg ([1]; substrate concentration 100 mM) [U/mg]	Activity U/ml ([1]; substrate concentration 100 mM) [U/ml]	Activity % [1, 4] [%]	other results
COCC1=C(C(=O)O[C@H](C)OC(=O)C(C)(C)C)N2C(=O)C(N)[C@@H]2SC1 (stereo partly drawn) [MACA ester pro K, (1R,S)-1-(2,2-dimethylpropionyloxy)-ethyl 7-amino-3-methoxymethyl-3-cephem-4-carboxylate]	–	–	–	Activity U/mg ([1]; substrate concentration 2.5 mM): 87.75 U/mg; Activity U/ml ([1]; substrate concentration 2.5 mM): 35.1 U/ml; Activity % [1, 3]: 99.7%
COCC1=C(C(=O)O[C@H](C)OC(=O)C(C)(C)C)N2C(=O)C(N)[C@@H]2SC1 (stereo partly drawn) [MACA ester pro J, (1R,S)-1-(2,2-dimethylpropionyloxy)-ethyl 7-amino-3-methoxymethyl-3-cephem-4-carboxylate]	–	–	–	Activity U/mg ([1]; substrate concentration 2.5 mM): 87.75 U/mg; Activity U/ml ([1]; substrate concentration 2.5 mM): 35.2 U/ml; Activity % [1, 3]: 100%
CCOC(=O)C(C)(C)C [Ethyl pivalate]	42.75	17.1	48.6	–
COCC1=C(C(=O)O[C@H](C)OC(=O)C(C)(C)C)N2C(=O)[C@@H](N)[C@H]2SC1 [R-ester hydrochloride]	–	–	–	conversion according to HPLC [2]: 95%
CCOC(=O)CC [Ethyl propionate]	50	20	56.8	–
CC(=O)Oc1ccc([N+](=O)[O-])cc1 [p-Nitrophenyl acetate, p-nitrophenyl acetate]	–	–	–	Activity U/mg [1, 5]: 76.0 U/mg; Activity U/ml [1, 5]: 30.4 U/ml; Activity % ([1]; substrate concentration 1.59 mM, HEPES, pH 6.95, relative to MACA ester pro J = 100): 86.4%; Activity U/mg [1, 6]: 108.75 U/mg; Activity U/ml [1, 6]: 43.5 U/ml; Activity % ([1]; substrate concentration 2.5 mM, phosphate buffer, pH 6.8, relative to MACA ester pro J = 100): 123.6%
CCOC(=O)C(C)N (racemic) [D,L-alanine ethyl ester]	40	16	45.5	–
CCOC(=O)C(C)Cl (stereo not shown) [Ethyl 2-chloro-propionate, ethyl 2-chloropropionate]	75	30	85.2	–
CC(OC(=O)C(C)(C)C)OC(=O)C(C)(C)C	–	–	–	Activity U/mg ([1]; substrate concentration 50 mM): 3.5 U/mg; Activity U/ml ([1]; substrate concentration 50 mM): 1.4 U/ml; Activity % ([1]; substrate concentration 50 mM, relative to MACA ester pro J = 100): 4%
